Results: patent publication US20230416329A1, “A PEPTIDE WITH DISULFIDE BONDS AND INHIBITORY ACTIVITY AGAINST SERINE PROTEASES, DERIVED HYBRID PEPTIDES THEREOF, AND USES THEREOF” (INSTITUTE OF MATERIA MEDICA , CHINESE ACADEMY OF MEDICAL …, priority 2020, published 2023)
Bridge positions count the residues as written; N and C are the ends. Ends that are not written are not given here.

Legend:
[1] = target: T1, interaction of PCSK9-LDLR (Homo sapiens, UniProt Q8NBP7); assay: PCSK9-LDLR in vitro binding assay (inhibitory rate); conditions: in vitro
T1 construct: purchased MBL Company, Beijing, China CY-8150
Protocol: Polypeptide PCSK9_1-14 (SEQ ID NOs: 210-223) is dissolved in pure water or DMSO. 85 μL reaction buffer, 5 μL 1 mM polypeptide sample and 10 μL 750 ng/mL PCSK9 protein was pre-incubated at room temperature for 20 minutes before being added to a 96 well plate. The OD450/540 nm value was measured according to the instructions of the PCSK9-LDLR in Vitro Binding Assay Kit (CY-8150, MBL Company, Beijing, China). Solvent control: replace polypeptide with 5 μL solvent. In 100 μL reaction system, the final concentration of the polypeptide and PCSK9 is 50 μM and 75 ng/mL, respectively.
Inhibition rate of polypeptide (%)=(OD450/540 nm(solvent control)−OD450/540 nm (sample))/OD450/540 nm(solvent control)×100

[2] = tested on: P407-induced hyperlipidemia mice; assay: Subcutaneous injection of PCSK9 inhibitory peptide, serum total cholesterol in P407-induced hyperlipidemia mice; type: in vivo, mouse; conditions: for serum total cholesterol (TC) level after subcutaneous injection (in words): 2 μmol/kg single s.c., P407-induced hyperlipidemia mice; for TC 30 min / TC 60 min / TC 90 min / TC 120 min / TC 15 min: serum, subcutaneous 2 μmol/kg, mean ± sd; for TC 30 min: 30 min after administration; for TC 60 min: 60 min after administration; for TC 90 min: 90 min after administration; for TC 120 min: 120 min after administration; for TC 15 min: 15 min after administration
Protocol: The experimental peptide sample was prepared using PEG400 with a final concentration of […], and the final concentration of PEG400 is 20% (w/v). Normal ICR mice were fasted overnight with water ad libitum. The next day, all of the mice were randomly divided into model control group (Con) and polypeptide administration group (2 μmol/kg) according to body weight. Then, all of the mice were intraperitoneally injected with P407 (500 mg/kg) and fed with feed 2 hours later. Six mice were taken as a normal control group (Nor). After 24 hours, the mice in Con were subcutaneously injected with saline containing 20% PEG400, and the mice in the treatment group were given peptides. Then, the blood was taken at different time points after administration to determine the serum total cholesterol (TC) level. In consideration of the complexity of factors affecting serum LDL-C levels, especially the differences between single and long-term administration, the in vivo activity of PCSK9 inhibitory peptide is mainly observed for changes in serum TC levels.

| Substance | inhibitory activity on the interaction between PCSK9 and LDLR (in words) [1] | serum total cholesterol (TC) level after subcutaneous injection (in words) [2] | TC 30 min [2] | TC 60 min [2] | TC 90 min [2] | TC 120 min [2] | TC 15 min [2] | further results |
| --- | --- | --- | --- | --- | --- | --- | --- | --- |
| Thr-Val-Phe-Thr-Ser-Gly-Arg-Cys-Thr-Lys-Ser-Ile-Pro-Pro-Ile-Cys-Phe-Trp-Glu-Glu-Tyr-Leu-Asp-Trp-Val (TVFTSGRCTKSIPPICFWEEYLDWV; disulfide 8-16 (inferred)) [PCSK9_9] | good inhibitory activity on the interaction between PCSK9 and LDLR | reduced serum TC level | 3143 ± 842 µg/mL | 3516 ± 914 µg/mL | 3409 ± 970 µg/mL | 327.4 ± 90.4 mg/dL |  | inhibitory activity on the interaction between PCSK9 and LDLR (in words) ([1]; listed as SEQ ID NO: 218): good inhibitory effects in vitro; serum total cholesterol (TC) level after subcutaneous injection (in words) ([2]; listed as SEQ ID NO: 218): excellent lowering lipid (total cholesterol) activities in vivo |
| Thr-Val-Phe-Thr-Ser-Gly-Cys-Gly-Arg-Ala-Thr-Lys-Ser-Ile-Pro-Pro-Ile-Cys-Phe-Trp-Glu-Glu-Tyr-Leu-Asp-Trp-Val (TVFTSGCGRATKSIPPICFWEEYLDWV; disulfide 7-18 (inferred)) [PCSK9_7] | good inhibitory activity on the interaction between PCSK9 and LDLR |  | 3398 ± 990 µg/mL | 3618 ± 954 µg/mL | 3461 ± 937 µg/mL | 337.6 ± 95.8 mg/dL |  | inhibitory activity on the interaction between PCSK9 and LDLR (in words) ([1]; listed as SEQ ID NO: 216): good inhibitory effects in vitro |
| Thr-Val-Phe-Thr-Ser-Gly-Ile-Cys-Thr-Ala-Ser-Ile-Pro-Pro-Ile-Cys-Gln-Trp-Glu-Glu-Tyr-Leu-Asp-Trp-Val (TVFTSGICTASIPPICQWEEYLDWV; disulfide 8-16 (inferred)) [PCSK9_9EC] | good inhibitory activity on the interaction between PCSK9 and LDLR |  | 2744 ± 909 µg/mL | 2676 ± 783 µg/mL | 2657 ± 838 µg/mL |  | 2789 ± 797 µg/mL | inhibitory activity on the interaction between PCSK9 and LDLR (in words) ([1]; listed as SEQ ID NO: 233): good inhibitory effects in vitro |
| Thr-Val-Phe-Thr-Ser-Gly-Phe-Cys-Thr-Tyr-Ser-Ile-Pro-Pro-Gln-Cys-Tyr-Gly-Trp-Glu-Glu-Tyr-Leu-Asp-Trp-Val (TVFTSGFCTYSIPPQCYGWEEYLDWV; disulfide 8-16 (inferred)) [PCSK9_9CH] | good inhibitory activity on the interaction between PCSK9 and LDLR |  | 4212 ± 753 µg/mL | 3658 ± 664 µg/mL | 2891 ± 710 µg/mL |  | 3727 ± 1154 µg/mL | inhibitory activity on the interaction between PCSK9 and LDLR (in words) ([1]; listed as SEQ ID NO: 232): good inhibitory effects in vitro |
| Thr-Val-Phe-Thr-Ser-Trp-Glu-Glu-Ala-Leu-Asp-Trp-Val-Cys-Gly-Arg-Ala-Thr-Lys-Ser-Ile-Pro-Pro-Ile-Cys-Phe (TVFTSWEEALDWVCGRATKSIPPICF; disulfide 14-25 (inferred)) [PCSK9_2] | good inhibitory activity on the interaction between PCSK9 and LDLR |  | 3079 ± 1081 µg/mL | 3178 ± 1039 µg/mL | 3078 ± 1044 µg/mL | 295.5 ± 95.4 mg/dL |  | inhibitory activity on the interaction between PCSK9 and LDLR (in words) ([1]; listed as SEQ ID NO: 211): good inhibitory effects in vitro |
| Thr-Val-Phe-Thr-Ser-Trp-Glu-Glu-Ala-Leu-Asp-Trp-Val-Gly-Ile-Cys-Thr-Ala-Ser-Ile-Pro-Pro-Ile-Cys-Gln (TVFTSWEEALDWVGICTASIPPICQ-OH; disulfide 16-24 (inferred)) [PCSK9_2EC] | good inhibitory activity on the interaction between PCSK9 and LDLR |  | 2859 ± 535 µg/mL | 2853 ± 487 µg/mL | 2757 ± 475 µg/mL |  | 2954 ± 455 µg/mL | inhibitory activity on the interaction between PCSK9 and LDLR (in words) ([1]; listed as SEQ ID NO: 225): good inhibitory effects in vitro |
| Thr-Val-Phe-Thr-Ser-Trp-Glu-Glu-Ala-Leu-Asp-Trp-Val-Gly-Phe-Cys-Thr-Tyr-Ser-Ile-Pro-Pro-Gln-Cys-Tyr-Gly (TVFTSWEEALDWVGFCTYSIPPQCYG-OH; disulfide 16-24 (inferred)) [PCSK9_2CH] | good inhibitory activity on the interaction between PCSK9 and LDLR |  | 2586 ± 700 µg/mL | 2737 ± 762 µg/mL | 2489 ± 760 µg/mL |  | 2772 ± 762 µg/mL | inhibitory activity on the interaction between PCSK9 and LDLR (in words) ([1]; listed as SEQ ID NO: 224): good inhibitory effects in vitro |
| Trp-Glu-Glu-Ala-Leu-Asp-Trp-Val-Cys-Gly-Arg-Ala-Thr-Lys-Ser-Ile-Pro-Pro-Ile-Cys-Phe-Gly-Thr-Val-Phe-Thr-Ser (WEEALDWVCGRATKSIPPICFGTVFTS; disulfide 9-20 (inferred)) [PCSK9_5] | good inhibitory activity on the interaction between PCSK9 and LDLR | reduced serum TC level | 3236 ± 542 µg/mL | 3089 ± 523 µg/mL | 2980 ± 591 µg/mL |  | 3050 ± 524 µg/mL | inhibitory activity on the interaction between PCSK9 and LDLR (in words) ([1]; listed as SEQ ID NO: 214): good inhibitory effects in vitro; serum total cholesterol (TC) level after subcutaneous injection (in words) ([2]; listed as SEQ ID NO: 214): excellent lowering lipid (total cholesterol) activities in vivo |
| Trp-Glu-Glu-Ala-Leu-Asp-Trp-Val-Gly-Ile-Cys-Thr-Ala-Ser-Ile-Pro-Pro-Ile-Cys-Gln-Gly-Thr-Val-Phe-Thr-Ser (WEEALDWVGICTASIPPICQGTVFTS; disulfide 11-19 (inferred)) [PCSK9_5EC] | good inhibitory activity on the interaction between PCSK9 and LDLR | reduced serum TC level | 2231 ± 795 µg/mL | 2577 ± 466 µg/mL | 2532 ± 425 µg/mL |  | 2669 ± 520 µg/mL | inhibitory activity on the interaction between PCSK9 and LDLR (in words) ([1]; listed as SEQ ID NO: 229): good inhibitory effects in vitro; serum total cholesterol (TC) level after subcutaneous injection (in words) ([2]; listed as SEQ ID NO: 229): excellent lowering lipid (total cholesterol) activities in vivo |
| Trp-Glu-Glu-Ala-Leu-Asp-Trp-Val-Gly-Phe-Cys-Thr-Tyr-Ser-Ile-Pro-Pro-Gln-Cys-Tyr-Gly-Thr-Val-Phe-Thr-Ser (WEEALDWVGFCTYSIPPQCYGTVFTS; disulfide 11-19 (inferred)) [PCSK9_5CH] | good inhibitory activity on the interaction between PCSK9 and LDLR |  | 3067 ± 685 µg/mL | 3023 ± 1035 µg/mL | 2705 ± 741 µg/mL |  | 3002 ± 716 µg/mL | inhibitory activity on the interaction between PCSK9 and LDLR (in words) ([1]; listed as SEQ ID NO: 228): good inhibitory effects in vitro |
